According to patent US20230212164A1, “ANNULATED 2-AMINO-3-CYANO THIOPHENES AND DERIVATIVES FOR THE TREATMENT OF CANCER” (BOEHRINGER INGELHEIM INTERNATIONAL GMBH, priority 2020, published 2023):

Legend:
[1] = test system: pERK (Thr202/Tyr204) in NCI-H358 (KRAS G12C mutation); test: ERK phosphorylation assay 1 (AlphaLISA SureFire Ultra p-ERK1/2); details: Homo sapiens, NCI-H358, read-out: IC50 H358 pERK
Experimental: ERK Phosphorylation Assay
Materials Used for the Assay:
AlphaLISA SureFire Ultra p-ERK1/2 (Thr202/Tyr204) Assay Kit (ALSU-PERK-A500)
The cells are incubated for 1 h at room temperature and then incubated overnight in an incubator at 37° C. and 5% CO2 in a humidified atmosphere. 60 nL compound solution (10 mM DMSO stock solution) is then added using a Labcyte Echo 550 device. […] After 20 minutes of incubation at room temperature with shaking, 6 μL of each lysate sample is transferred to a 384-well Proxiplate and analyzed for pERK (Thr202/Tyr204) with the AlphaLISA SureFire Ultra pERK1/2 (Thr202/Tyr204) Assay Kit. 3 μL Acceptor Mix and 3 μL Donor Mix are added under subdued light and incubated for 2 h at room temperature in the dark, before the signal is measured on a PerkinElmer Envision HTS Multilabel Reader. The raw data were imported into and analyzed with the Boehringer Ingelheim proprietary software MegaLab (curve fitting based on the program PRISM, GraphPad Inc.).

[2] = molecular target: T1, protein-protein interaction between SOS1 and KRAS G12C (Homo sapiens, UniProt P01116, C118S/C51S/C80L/G12C); test: KRAS::SOS1 AlphaScreen binding assay
T1 construct: His6 (N)
Experimental: KRAS::SOS1 AlphaScreen Binding Assay
Assay buffer: • 1×PBS • 0.1% BSA • 0.05% Tween 20
AlphaLISA Glutathione Acceptor Beads and AlphaScreen Streptavidin Donor Beads are mixed in assay buffer at a concentration of 10 μg/mL (final assay concentration) each prior to use and kept at room temperature.
Compounds are diluted to a final start concentration of 100 μM and are tested in duplicate. […] For compound a start concentration of 100 μM, 150 nL of compound solution is transferred per well in 11 concentrations in duplicate with serial 1:5 dilutions.
The assay is run using a fully automated robotic system in a darkened room below 100 Lux. 10 μL of KRAS::SOS1 GDP mix is added into columns 1-24 to the 150 nL of compound solution (final dilution in the assay 1:100, final DMSO concentration 1%).
After 30 minutes incubation time 5 μL of bead mix is added into columns 1-23. Plates are kept at room temperature in a darkened incubator. After further 60 minutes incubation, the signal is measured using a PerkinElmer Envision HTS Multilabel Reader using the AlphaScreen specifications from PerkinElmer. Each plate contains the following controls: • diluted DMSO+KRAS::SOS1 GDP mix+bead mix • diluted DMSO+KRAS::SOS1 GDP mix
IC50 values are calculated and analyzed using a 4 parametric logistic model.

T1 sequence (P01116 1-169 isoform P01116-2 G12C/C51S/C80L/C118S): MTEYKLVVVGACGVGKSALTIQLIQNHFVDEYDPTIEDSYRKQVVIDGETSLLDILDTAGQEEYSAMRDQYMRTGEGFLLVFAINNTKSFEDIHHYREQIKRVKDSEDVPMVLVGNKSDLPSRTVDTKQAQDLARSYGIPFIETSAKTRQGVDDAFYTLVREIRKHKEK

SMILES | IC50 [1] [nM] | IC50 ([2]; Table 36) [nM] | IC50 ([2]; Table 35) [nM] | IC50 ([2]; Table 38) [nM]
C=CC(=O)N1CCN(c2cc(-c3noc(C4(C)CCC(C)c5sc(N)c(C#N)c54)n3)nc(N3CCN(CC)CC3)c2)CC1 (stereo not shown) [Ia-105] | 14.4 | 145 | – | –
C=CC(=O)N1CCC(Oc2cc(-c3noc(C4(C)CCCc5sc(N)c(C#N)c54)n3)nc(N3CCN(C)CC3)c2)CC1 (stereo not shown) [Ia-141] | 39.6 | 71 | – | –
C=CC(=O)N1CCC(c2cc(-c3noc(C4(C)CCCc5sc(N)c(C#N)c54)n3)nc(N3CCN(C4CCCC4)CC3)c2)CC1 (stereo not shown) [Ia-2] | 131 | – | 336 | –
C=CC(=O)N1CCN(c2cc(-c3noc(C4(C)CCCc5sc(N)c(C#N)c54)n3)nc(N3CCN(CC)CC3)c2)CC1 (stereo not shown) [Ia-123] | 9.5 | 39 | – | –
C=CC(=O)N1CCN(c2cc(-c3noc([C@@]4(C)CCCc5sc(N)c(C#N)c54)n3)nc(N3CCN(CC)CC3)c2)CC1 [Ia-126] | 4.2 | 30 | – | –
C=CC(=O)N1CCC2C1CCN2c1cc(-c2noc([C@@]3(C)CCCc4sc(N)c(C#N)c43)n2)nc(N2CCCN(C)C[C@@H]2C)n1 (stereo partly shown) [Ia-103] | – | 143 | – | –
C=CC(=O)N1CC[C@H](Oc2cc(-c3noc(C4(C)CCCc5sc(N)c(C#N)c54)n3)nc(N3CCN(C)CC3)c2)C1 (stereo partly shown) [Ia-117] | 120 | 468 | – | –
C=CC(=O)N1CCN(c2cc(-c3noc([C@@]4(C)CCCc5sc(N)c(C#N)c54)n3)nc(N3CCN(C)C[C@H]3C)c2)CC1 [Ia-119] | 24.2 | – | – | –
C=CC(=O)N1CCN(c2cc(-c3noc(C4(C)CCCc5sc(N)c(C#N)c54)n3)nc(N3CCN4CCC[C@H]4C3)c2)CC1 (stereo partly shown) [Ia-148] | 5.9 | 24 | – | –
C=CC(=O)N1CCN(c2cc(-c3noc(C4(C)CCC(C)c5sc(N)c(C#N)c54)n3)nc(N3CCN(C)CC3)c2)CC1 (stereo not shown) [Ia-12] | 13.5 | 117 | – | –
C=CC(=O)N1CC[C@@H](Oc2cc(-c3noc([C@@]4(C)CCCc5sc(N)c(C#N)c54)n3)nc(N3CCN(C)CC3)c2)C1 [Ia-112] | 18.5 | 73 | – | –
C=CC(=O)N1CCN(c2cc(OCCN(C)C)cc(-c3noc(C4(C)CCCc5sc(N)c(C#N)c54)n3)c2)CC1 (stereo not shown) [Ia-90] | – | 250 | – | –
C=CC(=O)N1CCN(c2cc(-c3noc(C4(C)CCCc5sc(N)c(C#N)c54)n3)nc(N3CCN(C4CC4)CC3)c2)CC1 (stereo not shown) [Ia-17] | 29.4 | 260 | – | –
C=CC(=O)N1CCN(c2cc(-c3noc(C4(C)CCCc5sc(N)c(C#N)c54)n3)nc(N3CCN(C4CCC(F)(F)CC4)CC3)c2)CC1 (stereo not shown) [Ia-24] | 80.1 | 406 | – | –
C=CC(=O)N1CCN(c2cc(OCCN(C)C)nc(-c3noc(C4(C)CCCc5sc(N)c(C#N)c54)n3)c2)CC1 (stereo not shown) [Ia-89] | – | 48 | – | –
C=CC(=O)N1CCN(c2cc(-c3noc([C@@]4(C)CC[C@H](C)c5sc(N)c(C#N)c54)n3)nc(N3CCN(C4CCCC4)CC3)c2)CC1 [Ia-11] | 12.3 | 125 | – | –
C=CC(=O)N1CCN(c2cc(-c3noc(C4(C)CCCc5sc(N)c(C#N)c54)n3)nc(N3CCN4CCCCC4C3)c2)CC1 (stereo not shown) [Ia-149] | 8.6 | 47 | – | –
C=CC(=O)N1[C@H](C)CN(c2cc(-c3noc(C4(C)CCCc5sc(N)c(C#N)c54)n3)nc(N3CCN(C4CCCC4)CC3)c2)C[C@@H]1C (stereo partly shown) [Ia-8] | 544 | 1000 | – | –
C=CC(=O)N1CCN(c2cc(-c3noc(C4(C)CCCc5sc(N)c(C#N)c54)n3)nc(N3C4CCC3CN(C)C4)c2)CC1 (stereo not shown) [Ia-16] | 24.6 | 106 | – | –
C=CC(=O)N1CCN(c2cc(-c3noc(C4(C)CCCc5sc(N)c(C#N)c54)n3)nc(N3CCN(C)CC3)c2)CC1C (stereo not shown) [Ia-108] | 19.8 | 182 | – | –
C=CC(=O)N1CCN(c2cc(-c3noc(C4(C)CCCc5sc(N)c(C#N)c54)n3)nc(N3CCN(CC4CC4)CC3)c2)CC1 (stereo not shown) [Ia-121] | 9.9 | 50 | – | –

SMILES | IC50 [1] [nM] | IC50 ([2]; Table 36) [nM] | IC50 ([2]; Table 35) [nM] | IC50 ([2]; Table 38) [nM]
C=CC(=O)N1CCN(c2cc(-c3noc(C4(C)CCCc5sc(N)c(C#N)c54)n3)nc(N3CCN(C)CC34CC4)c2)CC1 (stereo not shown) [Ia-25] | 112 | 186 | – | –
C=CC(=O)N1CCN(c2cc(-c3noc(C4(C)CCCc5sc(N)c(C#N)c54)n3)nc(N3CCN(CC)C(C)C3)c2)CC1 (stereo not shown) [Ia-152] | 5.9 | 43 | – | –
C=CC(=O)N1CCC(c2cc(-c3noc(C4(C)CCCc5sc(N)c(C#N)c54)n3)nc(N3CCN(C)CC3)c2)CC1 (stereo not shown) [Ia-1] | 31.4 | – | 123 | –
C=CC(=O)N1CCCN(c2cc(-c3noc([C@@]4(C)CCCc5sc(N)c(C#N)c54)n3)nc(N3CCCN(CCCOC)C[C@@H]3C)n2)CC1 [Ia-45] | – | 6 | – | –
C=CC(=O)N1CCN(c2cc(OCCN3CCCC3)cc(-c3noc(C4(C)CCCc5sc(N)c(C#N)c54)n3)c2)CC1 (stereo not shown) [Ia-144] | 68.7 | 647 | – | –
C=CC(=O)N1CCN(c2cc(-c3noc(C4(C)CCCc5sc(N)c(C#N)c54)n3)nc(N3CCN(C)CC3)c2)CC1 (stereo not shown) [Ia-87] | 10 | 51 | – | –
C=CC(=O)N1CCN(c2cc(-c3noc(C4CCCc5sc(N)c(C#N)c54)n3)nc(N3CCN(C)CC3)c2)CC1 (stereo not shown) [Ia-27] | 61.6 | 240 | – | –
C=CC(=O)N1CCN(c2cc(OC3CCN(C)CC3)nc(-c3noc(C4(C)CCCc5sc(N)c(C#N)c54)n3)c2)CC1 (stereo not shown) [Ia-118] | 7.5 | 21 | – | –
C=CC(=O)N1CCN(c2cc(-c3noc(C4(C)CCC(C)c5sc(N)c(C#N)c54)n3)nc(N3CCN(C4CCCC4)CC3)c2)CC1 (stereo not shown) [Ia-10] | 38.5 | 254 | – | –
C=CC(=O)N1CCN(c2cc(-c3noc(C4(C)CCCc5sc(N)c(C#N)c54)n3)nc(N3CCN(C4CCN(C)CC4)CC3)c2)CC1 (stereo not shown) [Ia-28] | 785 | 152 | – | –
C=CC(=O)N1CCC(Oc2cc(O[C@@H](C)[C@@H]3CCCN3C)nc(-c3noc([C@]4(C)CCCc5sc(N)c(C#N)c54)n3)c2)CC1 [Ia-5] | – | 622 | – | –
C=CC(=O)N1CCN(c2cc(-c3noc(C4(C)CCCc5sc(N)c(C#N)c54)n3)nc(N3CCN(C(C)(C)C)CC3)c2)CC1 (stereo not shown) [Ia-31] | – | 83 | – | –
C=CC(=O)N1CCCN(c2cc(-c3noc(C4(C)CCCc5sc(N)c(C#N)c54)n3)nc(N3CCN(C)CC3)c2)CC1 (stereo not shown) [Ia-124] | 76.6 | 158 | – | –
C=CC(=O)N1CCN(c2cc(-c3noc(C4(C)CCCc5sc(N)c(C#N)c54)n3)nc(N3CCN(CCF)CC3)c2)CC1 (stereo not shown) [Ia-125] | 233 | 232 | – | –
CC#CC(=O)N1CCN(c2cc(-c3noc(C4(C)CCCc5sc(N)c(C#N)c54)n3)nc(N3CCN(C)CC3)c2)CC1 (stereo not shown) [Ia-168] | – | – | – | 1020
C=CC(=O)N1CC(CN(C)c2cc(-c3noc([C@@]4(C)CCCc5sc(N)c(C#N)c54)n3)nc(N3CCCN(C)C[C@@H]3C)n2)C1 [Ia-93] | – | 381 | – | –
C=CC(=O)N1CCN(c2cc(-c3noc([C@@]4(C)CCCc5sc(N)c(C#N)c54)n3)nc(N3CCN(C)C[C@@H]3C)c2)CC1 [Ia-14] | 2.7 | – | – | –
C=CC(=O)N1CCC2(CCN(c3cc(-c4noc([C@@]5(C)CCCc6sc(N)c(C#N)c65)n4)nc(N4CCCN(C)C[C@@H]4C)n3)C2)C1 (stereo partly shown) [Ia-96] | – | 799 | – | –
C=CC(=O)N1CC2=C(C1)CN(c1cc(-c3noc([C@@]4(C)CCCc5sc(N)c(C#N)c54)n3)nc(N3CCCN(C)C[C@@H]3C)n1)C2 [Ia-102] | – | 117 | – | –
C=CC(=O)N1CCN(c2cc(-c3noc([C@]4(C)CCCc5sc(N)c(C#N)c54)n3)nc(N3CCN(C)C[C@@H]3C)c2)CC1 [Ia-13] | 7.3 | – | – | –
C=CC(=O)N1CCN(c2cc(-c3noc(C4(C)CCCc5sc(N)c(C#N)c54)n3)nc(N3CCN(C4CCCC4)CC3)c2)CC1 (stereo not shown) [Ia-147] | – | 71 | – | –
